According to US20220081435A1, “ANDROGEN RECEPTOR PROTEIN DEGRADERS” (THE REGENTS OF THE UNIVERSITY OF MICHIGAN, priority 2019, published 2022):

Target: T1, AR protein (Homo sapiens, UniProt P10275, T878A)
T1 construct: The percent AR protein degradation induced by these compounds at various concentrations in LNCaP cells; host or cells: LNCaP
T1 sequence (P10275 1-920 T878A): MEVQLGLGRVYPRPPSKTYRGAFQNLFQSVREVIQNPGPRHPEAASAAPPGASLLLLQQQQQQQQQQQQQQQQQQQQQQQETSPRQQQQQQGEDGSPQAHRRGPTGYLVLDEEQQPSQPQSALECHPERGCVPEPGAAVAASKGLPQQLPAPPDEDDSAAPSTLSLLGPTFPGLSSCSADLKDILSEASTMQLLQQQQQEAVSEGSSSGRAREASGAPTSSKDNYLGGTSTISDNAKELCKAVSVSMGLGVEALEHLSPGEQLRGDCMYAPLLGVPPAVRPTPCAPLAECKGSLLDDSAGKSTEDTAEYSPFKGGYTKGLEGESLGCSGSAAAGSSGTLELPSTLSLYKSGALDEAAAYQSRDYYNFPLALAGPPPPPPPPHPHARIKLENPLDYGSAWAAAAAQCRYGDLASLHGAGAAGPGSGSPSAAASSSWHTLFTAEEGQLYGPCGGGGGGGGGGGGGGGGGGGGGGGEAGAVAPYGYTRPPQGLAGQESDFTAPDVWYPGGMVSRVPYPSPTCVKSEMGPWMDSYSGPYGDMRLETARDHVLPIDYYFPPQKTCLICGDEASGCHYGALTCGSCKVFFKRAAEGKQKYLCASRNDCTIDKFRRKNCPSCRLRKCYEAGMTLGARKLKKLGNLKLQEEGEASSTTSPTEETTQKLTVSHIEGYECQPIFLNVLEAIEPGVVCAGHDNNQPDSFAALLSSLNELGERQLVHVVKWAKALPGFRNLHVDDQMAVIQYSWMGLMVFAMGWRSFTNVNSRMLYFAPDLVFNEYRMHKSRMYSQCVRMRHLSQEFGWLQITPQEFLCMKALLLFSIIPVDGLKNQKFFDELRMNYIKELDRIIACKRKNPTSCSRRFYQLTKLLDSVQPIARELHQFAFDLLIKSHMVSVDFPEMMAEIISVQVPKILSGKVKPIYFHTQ
Assay: AR protein degradation in LNCaP cells (Western blotting)
Type: cell-based
Details: treatment time 6 h, average of three independent experiments; for Dmax at 0.1 µM / Dmax at 1 µM / Dmax at 10 µM / Dmax at 0.01 µM: LNCaP; for Dmax at 0.1 µM / Dmax at 1 µM / Dmax at 10 µM: read-out: % AR protein degradation in LNCaP Cells
Description: Cell lines and Cell Culture: All the LNCaP, VCaP and 22RV1 cells used were purchased from American Type Culture Collection (ATCC). […] All of the cells were supplemented with 10% fetal bovine serum (Invitrogen) at 37° C. in a humidified 5% CO2 incubator.
Western Blotting. Treated cells were lysed by RIPA buffer supplemented with protease and phosphatase inhibitors. […] Software ImageJ was used to quantify the percentage of AR degradation. The net protein bands and loading controls are calculated by deducting the background from the inverted band value. The final relative quantification values are the ratio of net band to net loading control.

| Compound | Dmax at 0.1 µM (0.1 μM) | Dmax at 1 µM (1 μM) | Dmax at 10 µM (10 μM) | Dmax at 0.01 µM (0.01 μM) | % AR protein degradation in LNCaP Cells (0.1 μM) | % AR protein degradation in LNCaP Cells (1 μM) | % AR protein degradation in LNCaP Cells (10 μM) | % AR protein degradation in LNCaP Cells (0.01 μM) |
| --- | --- | --- | --- | --- | --- | --- | --- | --- |
| Cc1ncsc1-c1ccc(CNC(=O)C2C[C@@H](O)CN2C(=O)[C@@H](NC(=O)CCCN2CCN(c3ccc(C#Cc4ccc(N5C(=S)N(c6ccc(C#N)c(C(F)(F)F)c6)C(=O)C5(C)C)cc4)cn3)CC2)C(C)(C)C)cc1 (stereo partly drawn) [Compound 20, (4R)-1-((S)-2-(4-(4-(5-((4-(3-(4-Cyano-3-(trifluoromethyl)phenyl)-5,5-dimethyl-4-oxo-2-thioxoimidazolidin-1-yl)phenyl)ethynyl)pyridin-2-yl)piperazin-1-yl)butanamido)-3,3-dimethylbutanoyl)-4-hydroxy-N-(4-(4-methylthiazol-5-yl)benzyl)pyrrolidine-2-carboxamide] | 50% | 80% | 80% |  |  |  |  |  |
| Cc1ncsc1-c1ccc([C@H](C)NC(=O)C2C[C@@H](O)CN2C(=O)[C@@H](NC(=O)CCCN2CCN(c3ccc(C#Cc4ccc(N5C(=S)N(c6ccc(C#N)c(C(F)(F)F)c6)C(=O)C5(C)C)cc4)cn3)CC2)C(C)(C)C)cc1 (stereo partly drawn) [Compound 21, (4R)-1-((S)-2-(4-(4-(5-((4-(3-(4-Cyano-3-(trifluoromethyl)phenyl)-5,5-dimethyl-4-oxo-2-thioxoimidazolidin-1-yl)phenyl)ethynyl)pyridin-2-yl)piperazin-1-yl)butanamido)-3,3-dimethylbutanoyl)-4-hydroxy-N—((S)-1-(4-(4-methylthiazol-5-yl)phenyl)ethyl)pyrrolidine-2-carboxamide] | 61% | 92% |  | 37% |  |  |  |  |
| Cc1ncsc1-c1ccc([C@H](C)NC(=O)[C@@H]2C[C@@H](O)CN2C(=O)[C@@H](NC(=O)CCCCN2CCN(c3ccc(C#Cc4ccc(N5C(=S)N(c6ccc(C#N)c(C(F)(F)F)c6)C(=O)C5(C)C)cc4)cn3)CC2)C(C)(C)C)cc1 [Compound 22, (2S,4R)-1-((S)-2-(5-(4-(5-((4-(3-(4-Cyano-3-(trifluoromethyl)phenyl)-5,5-dimethyl-4-oxo-2-thioxoimidazolidin-1-yl)phenyl)ethynyl)pyridin-2-yl)piperazin-1-yl)pentanamido)-3,3-dimethylbutanoyl)-4-hydroxy-N—((S)-1-(4-(4-methylthiazol-5-yl)phenyl)ethyl)pyrrolidine-2-carboxamide] | 48% | 89% |  | 28% |  |  |  |  |
| Cc1ncsc1-c1ccc([C@H](C)NC(=O)C2C[C@@H](O)CN2C(=O)[C@@H](NC(=O)CCN2CCN(c3ccc(C#Cc4ccc(N5C(=S)N(c6ccc(C#N)c(C(F)(F)F)c6)C(=O)C5(C)C)cc4)cn3)CC2)C(C)(C)C)cc1 (stereo partly drawn) [Compound 23, (4R)-1-((S)-2-(3-(4-(5-((4-(3-(4-Cyano-3-(trifluoromethyl)phenyl)-5,5-dimethyl-4-oxo-2-thioxoimidazolidin-1-yl)phenyl)ethynyl)pyridin-2-yl)piperazin-1-yl)propanamido)-3,3-dimethylbutanoyl)-4-hydroxy-N—((S)-1-(4-(4-methylthiazol-5-yl)phenyl)ethyl)pyrrolidine-2-carboxamide] | 51% | 78% |  | 34% |  |  |  |  |
| Cc1ncsc1-c1ccc([C@H](C)NC(=O)C2C[C@@H](O)CN2C(=O)[C@@H](NC(=O)CN2CCN(c3ccc(C#Cc4ccc(N5C(=S)N(c6ccc(C#N)c(C(F)(F)F)c6)C(=O)C5(C)C)cc4)cn3)CC2)C(C)(C)C)cc1 (stereo partly drawn) [Compound 24, (4R)-1-((S)-2-(2-(4-(5-((4-(3-(4-Cyano-3-(trifluoromethyl)phenyl)-5,5-dimethyl-4-oxo-2-thioxoimidazolidin-1-yl)phenyl)ethynyl)pyridin-2-yl)piperazin-1-yl)acetamido)-3,3-dimethylbutanoyl)-4-hydroxy-N—((S)-1-(4-(4-methylthiazol-5-yl)phenyl)ethyl)pyrrolidine-2-carboxamide] | 3% | 31% | 28% |  |  |  |  |  |
| Cc1ncsc1-c1ccc([C@H](C)NC(=O)C2C[C@@H](O)CN2C(=O)[C@@H](NC(=O)N2CCN(c3ccc(C#Cc4ccc(N5C(=S)N(c6ccc(C#N)c(C(F)(F)F)c6)C(=O)C5(C)C)cc4)cn3)CC2)C(C)(C)C)cc1 (stereo partly drawn) [Compound 25, 4-(5-((4-(3-(4-Cyano-3-(trifluoromethyl)phenyl)-5,5-dimethyl-4-oxo-2-thioxoimid-azolidin-1-yl)phenyl)ethynyl)pyridin-2-yl)-N-((2S)-1-((4R)-4-hydroxy-2-(((S)-1-(4-(4-methylthiazol-5-yl)phenyl)ethyl)carbamoyl)pyrrolidin-1-yl)-3,3-dimethyl-1-oxobutan-2-yl)piperazine-1-carboxamide] |  |  |  |  | 0% | 12% | 0% |  |
| Cc1cc([C@H](C(=O)N2C[C@H](O)C[C@H]2C(=O)N[C@@H](CC(=O)NCCCCCCCCCNC(=O)c2ccc(N3C(=S)N(c4ccc(C#N)c(C(F)(F)F)c4)C(=O)C3(C)C)cc2F)c2ccc(-c3scnc3C)cc2)C(C)C)on1 [Compound 26, (2S,4R)—N—((S)-3-((9-(4-(3-(4-Cyano-3-(trifluoromethyl)phenyl)-5,5-dimethyl-4-oxo-2-thioxoimidazolidin-1-yl)-2-fluorobenzamido)nonyl)amino)-1-(4-(4-methylthiazol-5-yl)phenyl)-3-oxopropyl)-4-hydroxy-1-((R)-3-methyl-2-(3-methylisoxazol-5-yl)butanoyl)pyrrolidine-2-carboxamide] | 50% | 87% |  | 11% |  |  |  |  |
| Cc1cc([C@H](C(=O)N2C[C@H](O)C[C@H]2C(=O)N[C@@H](CC(=O)NCCCN2CCN(c3ccc(C#Cc4ccc(N5C(=S)N(c6ccc(C#N)c(C(F)(F)F)c6)C(=O)C5(C)C)cc4)cn3)CC2)c2ccc(-c3scnc3C)cc2)C(C)C)on1 [Compound 27, (2S,4R)—N—((S)-3-((3-(4-(5-((4-(3-(4-Cyano-3-(trifluoromethyl)phenyl)-5,5-dimethyl-4-oxo-2-thioxoimidazolidin-1-yl)phenyl)ethynyl)pyridin-2-yl)piperazin-1-yl)propyl)amino)-1-(4-(4-methylthiazol-5-yl)phenyl)-3-oxopropyl)-4-hydroxy-1-((R)-3-methyl-2-(3-methylisoxazol-5-yl)butanoyl)pyrrolidine-2-carboxamide] | 75% | 94% |  | 27% |  |  |  |  |
| Cc1cc([C@H](C(=O)N2C[C@H](O)C[C@H]2C(=O)N[C@@H](CC(=O)N2CCN(c3ccc(C#Cc4ccc(C(=O)N[C@H]5C(C)(C)[C@H](Oc6ccc(C#N)c(Cl)c6)C5(C)C)cc4)cn3)CC2)c2ccc(-c3scnc3C)cc2)C(C)C)on1 [Compound 28, (2S,4R)—N—((S)-3-(4-(5-((4-(((1r,3r)-3-(3-Chloro-4-cyanophenoxy)-2,2,4,4-tetramethylcyclobutyl)carbamoyl)phenyl)ethynyl)pyridin-2-yl)piperazin-1-yl)-1-(4-(4-methylthiazol-5-yl)phenyl)-3-oxopropyl)-4-hydroxy-1-((R)-3-methyl-2-(3-methylisoxazol-5-yl)butanoyl)pyrrolidine-2-carboxamide] |  |  |  |  | 72% | 93% |  | 22% |
| Cc1cc([C@H](C(=O)N2C[C@H](O)C[C@H]2C(=O)N[C@@H](CC(=O)N2CCC(N3CCC(C#Cc4ccc(N5C(=S)N(c6ccc(C#N)c(C(F)(F)F)c6)C(=O)C5(C)C)cc4)CC3)CC2)c2ccc(-c3scnc3C)cc2)C(C)C)on1 [Compound 29, (2S,4R)—N—((S)-3-(4-((4-(3-(4-Cyano-3-(trifluoromethyl)phenyl)-5,5-dimethyl-4-oxo-2-thioxoimidazolidin-1-yl)phenyl)ethynyl)-[1,4′-bipiperidin]-1′-yl)-1-(4-(4-methylthiazol-5-yl)phenyl)-3-oxopropyl)-4-hydroxy-1-((R)-3-methyl-2-(3-methylisoxazol-5-yl)butanoyl)pyrrolidine-2-carboxamide] | 81% | 97% |  | 20% |  |  |  |  |
